We go through six molecules from patent publication US20120121591A1 (priority 2009, published 2012).

Like-named read-outs stand apart in the source and are kept apart here.

Holding throughout (assay type): cell-based
The test system of assay [1] is IL-2 secretion from T cells in human whole blood. The conditions noted are these: read-out: WB (IL-2) IC50 (nM, Avg).
Assay [2] concerns IFN-g secretion from T cells in human whole blood.
Assay [3] has as its target hKv1.3 (Homo sapiens, UniProt P22001). The experiment in a line: cell-based. The conditions noted are these: Kv1.3 (IWQ) IC50 (nM, Avg).
The mark [4] stands for this setting: read-out: WB (IFNg) IC5- (nM, Avg).
[5] abbreviates: read-out: WB (IFNg) IC50 (nM, Avg).

Chain of hKv1.3 (P22001 whole entry): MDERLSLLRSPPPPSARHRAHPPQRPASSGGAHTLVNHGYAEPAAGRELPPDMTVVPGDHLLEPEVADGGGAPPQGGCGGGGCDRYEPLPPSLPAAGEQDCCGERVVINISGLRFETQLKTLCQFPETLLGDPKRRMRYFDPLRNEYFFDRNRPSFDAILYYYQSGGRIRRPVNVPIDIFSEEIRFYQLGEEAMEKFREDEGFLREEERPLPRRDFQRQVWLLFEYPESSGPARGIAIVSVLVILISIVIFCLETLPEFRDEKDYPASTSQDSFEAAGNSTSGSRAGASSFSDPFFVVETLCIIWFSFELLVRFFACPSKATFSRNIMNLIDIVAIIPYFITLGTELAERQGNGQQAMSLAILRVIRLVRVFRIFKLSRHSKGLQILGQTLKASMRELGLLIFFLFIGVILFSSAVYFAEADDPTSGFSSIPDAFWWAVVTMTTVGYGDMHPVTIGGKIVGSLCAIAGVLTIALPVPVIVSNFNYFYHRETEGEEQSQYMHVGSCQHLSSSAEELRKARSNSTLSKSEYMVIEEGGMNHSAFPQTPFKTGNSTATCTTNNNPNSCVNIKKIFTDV

On to `CC[C@H](C)[C@@H]1NC(=O)[C@@H](NC(=O)[C@H](CO)NC(=O)[C@@H](N)CCCNC(=N)N)CSSC[C@@H](C(=O)O)NC(=O)[C@H]([C@@H](C)O)NC(=O)CNC(=O)[C@@H]2CSSC[C@@H]3NC(=O)[C@H](CCC(N)=O)NC(=O)[C@H](Cc4ccccc4)NC(=O)[C@H](C)NC(=O)[C@H]([C@@H](C)O)NC(=O)[C@H](CSSC[C@H](NC(=O)[C@H](Cc4ccccc4)NC(=O)[C@H](CO)NC(=O)[C@H](CC(C)C)NC(=O)[C@H](CCCNC(=N)N)NC(=O)[C@H](Cc4ccc(O)cc4)NC(=O)[C@H](CCCCN)NC(=O)[C@H](CCSC)NC(=O)[C@H](CO)NC(=O)[C@H](Cc4c[nH]cn4)NC(=O)[C@H](CCCCN)NC3=O)C(=O)N[C@@H](CCCNC(=N)N)C(=O)N[C@@H](CCCCN)C(=O)N[C@@H]([C@@H](C)O)C(=O)N2)NC(=O)[C@H](CCC(=O)O)NC(=O)[C@H](CO)NC(=O)[C@H](CCCCN)NC(=O)[C@@H]2CCCN2C(=O)[C@H]([C@@H](C)CC)NC(=O)[C@H]([C@@H](C)O)NC(=O)[C@H](CC(=O)O)NC1=O` [[Glu11]ShK], for which the IC50 in assay [1] turned out to be 1.32 nM; in assay [2] (setting [4]) it was 4.54 nM; in assay [3], 0.969 nM.

As for `CC[C@H](C)[C@@H]1NC(=O)[C@@H](NC(=O)[C@H](CO)NC(=O)[C@@H](N)CCCNC(=N)N)CSSC[C@@H](C(=O)O)NC(=O)[C@H]([C@@H](C)O)NC(=O)CNC(=O)[C@@H]2CSSC[C@@H]3NC(=O)[C@H](CCC(N)=O)NC(=O)[C@H](Cc4ccccc4)NC(=O)[C@H](C)NC(=O)[C@H](CCC(=O)O)NC(=O)[C@H](CSSC[C@H](NC(=O)[C@H](Cc4ccccc4)NC(=O)[C@H](CO)NC(=O)[C@H](CC(C)C)NC(=O)[C@H](CCCNC(=N)N)NC(=O)[C@H](Cc4ccc(O)cc4)NC(=O)[C@H](CCCCN)NC(=O)[C@H](CCSC)NC(=O)[C@H](CO)NC(=O)[C@H](Cc4c[nH]cn4)NC(=O)[C@H](CCCCN)NC3=O)C(=O)N[C@@H](CCCNC(=N)N)C(=O)N[C@@H](CCCCN)C(=O)N[C@@H]([C@@H](C)O)C(=O)N2)NC(=O)[C@H](CCCNC(=N)N)NC(=O)[C@H](CO)NC(=O)[C@H](CCCCN)NC(=O)[C@@H]2CCCN2C(=O)[C@H]([C@@H](C)CC)NC(=O)[C@H]([C@@H](C)O)NC(=O)[C@H](CC(=O)O)NC1=O` [[Glu13]ShK], the IC50 in assay [1] stood at 0.785 nM; in assay [2] (setting [4]) it was 1.1 nM; in assay [3], 0.157 nM.

Regarding `CC[C@H](C)[C@@H]1NC(=O)[C@@H](NC(=O)[C@H](CO)NC(=O)[C@@H](N)CCCNC(=N)N)CSSC[C@@H](C(=O)O)NC(=O)[C@H]([C@@H](C)O)NC(=O)CNC(=O)[C@@H]2CSSC[C@@H]3NC(=O)[C@H](CCC(N)=O)NC(=O)[C@H](CCC(=O)O)NC(=O)[C@H](C)NC(=O)[C@H]([C@@H](C)O)NC(=O)[C@H](CSSC[C@H](NC(=O)[C@H](Cc4ccccc4)NC(=O)[C@H](CO)NC(=O)[C@H](CC(C)C)NC(=O)[C@H](CCCNC(=N)N)NC(=O)[C@H](Cc4ccc(O)cc4)NC(=O)[C@H](CCCCN)NC(=O)[C@H](CCSC)NC(=O)[C@H](CO)NC(=O)[C@H](Cc4c[nH]cn4)NC(=O)[C@H](CCCCN)NC3=O)C(=O)N[C@@H](CCCNC(=N)N)C(=O)N[C@@H](CCCCN)C(=O)N[C@@H]([C@@H](C)O)C(=O)N2)NC(=O)[C@H](CCCNC(=N)N)NC(=O)[C@H](CO)NC(=O)[C@H](CCCCN)NC(=O)[C@@H]2CCCN2C(=O)[C@H]([C@@H](C)CC)NC(=O)[C@H]([C@@H](C)O)NC(=O)[C@H](CC(=O)O)NC1=O` [[Glu15]ShK], the results for the IC50 in assay [1], in assay [2] (setting [4]) and in assay [3] were 0.312 nM, 0.575 nM and 0.266 nM, respectively.

With `CC[C@H](C)[C@@H]1NC(=O)[C@@H](NC(=O)[C@H](CO)NC(=O)[C@@H](N)CCCNC(=N)N)CSSC[C@@H](C(=O)O)NC(=O)[C@H]([C@@H](C)O)NC(=O)CNC(=O)[C@@H]2CSSC[C@@H]3NC(=O)[C@H](CCC(=O)O)NC(=O)[C@H](Cc4ccccc4)NC(=O)[C@H](C)NC(=O)[C@H]([C@@H](C)O)NC(=O)[C@H](CSSC[C@H](NC(=O)[C@H](Cc4ccccc4)NC(=O)[C@H](CO)NC(=O)[C@H](CC(C)C)NC(=O)[C@H](CCCNC(=N)N)NC(=O)[C@H](Cc4ccc(O)cc4)NC(=O)[C@H](CCCCN)NC(=O)[C@H](CCSC)NC(=O)[C@H](CO)NC(=O)[C@H](Cc4c[nH]cn4)NC(=O)[C@H](CCCCN)NC3=O)C(=O)N[C@@H](CCCNC(=N)N)C(=O)N[C@@H](CCCCN)C(=O)N[C@@H]([C@@H](C)O)C(=O)N2)NC(=O)[C@H](CCCNC(=N)N)NC(=O)[C@H](CO)NC(=O)[C@H](CCCCN)NC(=O)[C@@H]2CCCN2C(=O)[C@H]([C@@H](C)CC)NC(=O)[C@H]([C@@H](C)O)NC(=O)[C@H](CC(=O)O)NC1=O` [[Glu16]ShK], the IC50 in assay [1] worked out at 0.351 nM; in assay [2] (setting [4]), 0.373 nM; in assay [3] it was 0.206 nM.

Consider `CCCC[C@@H]1NC(=O)[C@H](CO)NC(=O)[C@H](Cc2c[nH]cn2)NC(=O)[C@H](CCC(=O)O)NC(=O)[C@@H]2CSSC[C@@H]3NC(=O)[C@H]([C@@H](C)O)NC(=O)[C@H](CCCNC(=N)N)NC(=O)[C@H](CCCNC(=N)N)NC(=O)[C@H](CSSC[C@H](NC(=O)[C@H](CCCNC(=N)N)NC(=O)[C@H](CO)NC(=O)[C@H](CCCCN)NC(=O)[C@@H]4CCCN4C(=O)[C@H]([C@@H](C)CC)NC(=O)[C@H]([C@@H](C)O)NC(=O)[C@H](CC(=O)O)NC(=O)[C@H]([C@@H](C)CC)NC(=O)[C@@H](NC(=O)[C@H](CO)NC(=O)[C@@H](N)CCCNC(=N)N)CSSC[C@@H](C(N)=O)NC(=O)[C@H]([C@@H](C)O)NC(=O)CNC3=O)C(=O)N[C@@H]([C@@H](C)O)C(=O)N[C@@H](C)C(=O)N[C@@H](Cc3ccccc3)C(=O)N[C@@H](CCCCN)C(=O)N2)NC(=O)[C@H](Cc2ccccc2)NC(=O)[C@H](CO)NC(=O)[C@H](CC(C)C)NC(=O)[C@H](CCCNC(=N)N)NC(=O)[C@H](Cc2ccc(O)cc2)NC(=O)[C@H](CCCCN)NC1=O` [[Glu18, Lys16, Nle21,Arg30]ShK-amide], for which the IC50 in assay [1] is 1.22 nM; in assay [2] (setting [5]) it was 0.969 nM; in assay [3], 0.226 nM.

In the case of `CCCC[C@@H]1NC(=O)[C@H](CO)NC(=O)[C@H](Cc2c[nH]cn2)NC(=O)[C@H](CCC(=O)O)NC(=O)[C@@H]2CSSC[C@@H]3NC(=O)[C@H]([C@@H](C)O)NC(=O)[C@H](CCCCN)NC(=O)[C@H](CCCNC(=N)N)NC(=O)[C@H](CSSC[C@H](NC(=O)[C@H](CCCNC(=N)N)NC(=O)[C@H](CO)NC(=O)[C@H](CCCCN)NC(=O)[C@@H]4CCCN4C(=O)[C@H]([C@@H](C)CC)NC(=O)[C@H]([C@@H](C)O)NC(=O)[C@H](CC(=O)O)NC(=O)[C@H]([C@@H](C)CC)NC(=O)[C@@H](NC(=O)[C@H](CO)NC(=O)[C@@H](N)CCCNC(=N)N)CSSC[C@@H](C(N)=O)NC(=O)[C@H]([C@@H](C)O)NC(=O)CNC3=O)C(=O)N[C@@H]([C@@H](C)O)C(=O)N[C@@H](C)C(=O)N[C@@H](C)C(=O)N[C@@H](CCCCN)C(=O)N2)NC(=O)[C@H](Cc2ccccc2)NC(=O)[C@H](CO)NC(=O)[C@H](CC(C)C)NC(=O)[C@H](CCCNC(=N)N)NC(=O)[C@H](Cc2ccc(O)cc2)NC(=O)[C@H](CCCCN)NC1=O` [[Glu18,Ala15,Lys16,Nle21]ShK-amide], the IC50 worked out at 1.35 nM in assay [1], 1.29 nM in assay [2] (setting [5]) and 0.202 nM in assay [3].
